# Source: PMC11897524 (Frontiers in Pharmacology, 2025)
# Tests used:
# [1] = test system: p-STAT3 and c-myc protein; assay: Western blot on xenograft tumor tissues; assay type: in vivo, BALB/c nude mice; settings: xenograft tumor tissue
# Experimental: For the assessment of protein expression levels, Western blot analysis was conducted following a standardized protocol ([Zhou et al., 2022]). The CAKI-2 cells were initially rinsed with PBS to remove any residual culture medium. Subsequently, cells were lysed using a RIPA buffer supplemented with 1 mM phenylmethylsulfonyl fluoride (PMSF), and the lysate was incubated on ice for a duration of 1 h. The lysate was centrifuged at a speed of 13,000 rpm for 30 min at 4°C. Protein concentrations were quantified using a BCA protein assay kit (Beyotime, Shanghai, China), ensuring equal protein loading for each sample. Samples were then resolved by SDS-PAGE and transferred onto a polyvinylidene difluoride (PVDF) membrane. Subsequently, the membrane was blocked with 3% BSA in PBS at room temperature for 2 h and incubated overnight with the corresponding antibody at 4°C. […] The specific protein bands were visualized using ECL detection system (Tanon, Shanghai, China), and the band intensities were quantified using ImageJ software.
# To further investigate the in vivo effects of BST-4, 6–8 weeks male BALB/c nude mice were obtained by Changzhou Cavens Experimental Animal Co., Ltd. (Changzhou, China). […] The tumor volume of mice was measured every 2 days and calculated according to the formula: (c × c × d)/2, where c and d represent the minimum diameter and maximum diameter, respectively. […]
# STAT2 = STAT2 (Homo sapiens, UniProt P52630); assay: Binding affinity to BET and STAT family members
# STAT2, sequence (P52630 whole entry): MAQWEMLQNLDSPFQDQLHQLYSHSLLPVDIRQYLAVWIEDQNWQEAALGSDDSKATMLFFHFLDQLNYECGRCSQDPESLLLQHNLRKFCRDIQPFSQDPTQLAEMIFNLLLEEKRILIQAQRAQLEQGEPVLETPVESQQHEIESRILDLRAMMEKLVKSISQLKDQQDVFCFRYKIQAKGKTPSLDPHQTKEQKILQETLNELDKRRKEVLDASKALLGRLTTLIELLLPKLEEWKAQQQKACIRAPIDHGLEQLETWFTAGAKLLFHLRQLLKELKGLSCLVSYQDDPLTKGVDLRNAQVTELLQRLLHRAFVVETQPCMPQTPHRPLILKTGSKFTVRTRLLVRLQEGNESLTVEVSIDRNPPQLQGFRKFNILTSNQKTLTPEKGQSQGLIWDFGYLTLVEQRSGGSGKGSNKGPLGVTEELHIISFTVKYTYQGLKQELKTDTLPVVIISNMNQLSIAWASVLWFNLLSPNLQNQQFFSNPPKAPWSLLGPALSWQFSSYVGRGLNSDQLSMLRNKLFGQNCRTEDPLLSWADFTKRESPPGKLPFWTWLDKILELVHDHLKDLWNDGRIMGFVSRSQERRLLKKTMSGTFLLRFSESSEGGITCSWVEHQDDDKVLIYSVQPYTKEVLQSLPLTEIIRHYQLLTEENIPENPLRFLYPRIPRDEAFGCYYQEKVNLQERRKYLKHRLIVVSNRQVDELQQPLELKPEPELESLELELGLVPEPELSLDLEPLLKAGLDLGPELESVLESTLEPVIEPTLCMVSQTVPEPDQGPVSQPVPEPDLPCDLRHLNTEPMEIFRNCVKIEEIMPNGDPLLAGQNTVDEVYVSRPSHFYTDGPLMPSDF
compound,measurement,setting,value
CCS(=O)(=O)Cc1cnc(Oc2c(F)cc(F)cc2OCCCCOc2ccc(/C=C/c3cc(OC)cc(OC)c3)cc2)c(-c2cc(C)c3c(=O)[nH]ccn23)c1 [BST-4],c-myc protein expression level in tumor tissues,[1],significantly downregulated
same,p-STAT3 protein expression level in tumor tissues,[1],significantly downregulated
same,Kd,STAT2,> 10 µM
